According to patent US20220387404A1, “TREATMENT OF CANCER USING A COMBINATION COMPRISING MULTI-TYROSINE KINASE INHIBITOR AND IMMUNE CHECKPOINT INHIBITOR” (BEIGENE, LTD., priority 2019, published 2022):

Legend:
[1] = system: A431 (epidermal carcinoma) cells; experiment: Combination efficacy in A431 allogeneic mouse model (A431 cells + human PBMC, s.c.); assay type: in vivo, Nod-Scid mice; settings: Mab-1 10 mg/kg QW i.p., Compound 1 1.5 mg/kg QD P.O.
Method: Female Nod-Scid mice were pretreated with cyclophosphamide (in saline, 100 mg/kg intraperitoneal, QD×2) and disulfiram (in 0.8% Tween-80 in saline 125 mg/kg oral gavage, 2 hr after the dose of cyclophosphamide). Two days later, mice with higher body weight were subcutaneously implanted with 2.5×10^6 A431 (epidermal carcinoma) cells and 5×10^6 freshly isolated peripheral blood mononuclear cells (PBMC) on the right flank. After inoculation, mice were randomly assigned into 4 groups with 10 animals in each group according to body weight. Then mice were treated with vehicle (PEG400/0.1N HCL in saline, 40/60), Mab-1, Compound 1, and combination of Mab-1 and Compound 1, respectively. Mab-1 was given at 10 mg/kg once per week (QW) by intraperitoneal (i.p.) injection, and Compound 1 was administered at 1.5 mg/kg once per day (QD) by oral gavage (P.O.). Tumor volume was determined twice weekly in two dimensions using a caliper, and expressed in mm^3 using the formula: V=0.5(a×b^2), where a and b are the long and short diameters of the tumor, respectively.
Data are presented as mean tumor volume±standard error of the mean (SEM). Tumor growth inhibition (TGI) is calculated using the following formula:
treated t=treated tumor volume at time t;treated t0=treated tumor volume at time 0; placebo t=placebo tumor volume at time t; placebo t0=placebo tumor volume at time 0.

[2] = system: CT26WT (colon carcinoma) cells; experiment: Combination efficacy in CT26WT syngeneic mouse model; assay type: in vivo, BALB/c mice; settings: muCh15mt 3 mg/kg QW i.p., Compound 1 5 mg/kg QD oral gavage
Method: Female BALB/c mice were s.c implanted with 2×10^5 CT26WT (colon carcinoma) cells per 150 ul PBS in the right flank. After inoculation, mice were randomized into 4 groups with 12 animals in each group. The mice were treated with vehicle (PEG400/0.1N HCL in saline, 40/60), muCh15mt, Compound 1, and the combination of muCh15mt and Compound 1, respectively. MuCh15mt was given at 3 mg/kg once per week (QW) by intraperitoneal (i.p.) injection, and Compound 1 was administered at 5 mg/kg once per day (QD) by oral gavage. Tumor volume was determined twice weekly in two dimensions using a caliper, and was expressed in mm^3 using the formula: V=0.5(a×b^2) where a and b are the long and short diameters of the tumor, respectively. Data are presented as mean tumor volume 1 standard error of the mean (SEM). Tumor growth inhibition (TGI) is calculated using the following formula:
(§1) treated t=treated tumor volume at time t treated t0=treated tumor volume at time 0 placebo t=placebo tumor volume at time t placebo t0=placebo tumor volume at time 0

[3] = system: MC38 (colon adenocarcinoma) cells; experiment: Combination efficacy in MC38 syngeneic mouse model; assay type: in vivo, BALB/C mice; settings: muCh15mt 3 mg/kg QW i.p., Compound 1 5 mg/kg QD P.O.
Method: Female BALB/C mice were s.c implanted with 1×10^6 MC38 (colon adenocarcinoma) cells per 150 μl PBS in the right flank. After inoculation, mice were randomized into 4 groups with 15 animals in each group. The mice were treated with vehicle (PEG400/0.1N HCL in saline, 40/60), muCh15mt, Compound 1, and the combination treatment of much15mt and Compound 1, respectively. MuCh15mt was given at 3 mg/kg once per week (QW) by intraperitoneal (i.p.) injection, and Compound 1 was administered at 5 mg/kg once per day (QD) for 25 days by oral gavage (P.O.). Tumor volumes were determined twice weekly in two dimensions using a caliper, and were expressed in mm^3 using the formula: V=0.5(a×b^2) where a and b are the long and short diameters of the tumor, respectively.
Data are presented as mean tumor volume+standard error of the mean (SEM). Tumor growth inhihition (TGI) is calculated using the following formula:
as §1

[4] = system: A20 (B cell lymphoma) cells; experiment: Combination efficacy in A20 syngeneic mouse model; assay type: in vivo, BALB/C mice; settings: muCh15mt 3 mg/kg QW i.p., Compound 1 5 mg/kg QD P.O.
Method: Female BALB/C mice were s.c implanted with 1×10^5 A20 (B cell lymphoma) cells per 150 μl PBS in the right flank. After inoculation, tumor volumes were determined twice weekly in two dimensions using a caliper, and were expressed in mm^3 using the formula: V=0.5(a×b^2) where a and b are the long and short diameters of the tumor, respectively. When tumor volume reached approximately 100 mm^3, mice were randomized into 4 groups with 12 animals in each group according to tumor volume. The mice were then treated with vehicle (PEG400/0.1N HCL in saline, 40/60), muCh15mt, Compound 1, and the combination, respectively. MuCh15mt was given at 3 mg/kg once per week (QW) by intraperitoneal (i.p.) injection, and Compound 1 was administered at 5 mg/kg once per day (QD) by oral gavage (P.O.).
Data are presented as mean tumor volume ±standard error of the mean (SEM). Tumor growth inhibition (TGI) is calculated using the following formula:
as §1

COCCNCc1ccc(-c2cc3nccc(Oc4ccc(NC(=O)C5(C(=O)Nc6ccc(F)cc6)CC5)cc4F)c3s2)nc1 [Compound 1]
Mean Tumor Volume on Day 26 (mm^3) [1]: 851.5 mm^3
TGI (%) on Day 26 [1]: 37%
Mean Tumor Volume on Day 28 (mm^3) [2]: 723.2 mm^3
TGI (%) on Day 28 [2]: 71%
Tumor Free Animal (%) on Day 28 [2]: 6.7%
Mean Tumor Volume on Day 25 (mm^3) [3]: 1089.5 mm^3
TGI (%) on Day 25 [3]: 56%
Tumor Free Animal % on Day 25 [3]: 0%
TGI (%) on Day 15 ([4]; Day 15): 71%
Mean Tumor Volume on Day 18 (mm^3) ([4]; Day 18): 735.7 mm^3
Tumor Free Animal % on Day 18 ([4]; Day 18): 8.3%
